# Measurements taken from patent publication US20190117586A1, “METHODS OF PREVENTING OR TREATING PARKINSON'S DISEASE BY THE FARNESYLATION OF PARIS” (The Johns Hopkins University, priority 2016, published 2019).
# Key:
# PPARα and PPARγ = PPARα and PPARγ levels and target gene mRNA in farnesol fed mice; assay type: in vivo
# Tg-PARIS mice = experiment: Tet inducible conditional PARIS transgenic mice (Tg-PARIS); assay type: in vivo
# Text: A C-terminal FLAG tagged human PARIS under the control of a tetracycline responsive regulator (TetP-PARIS-Flag) was used to generate tetracycline responsive transgenic mice (Figure S5A). […] Three of the highest copy number male founder mice were crossed with the CamKIIα-tTA transgenic mice to achieve transgene expression throughout the mouse forebrain (Mayford et al., 1996). […] Thus, dams were maintained on doxycycline to suppress PARIS expression and pups were maintained on doxycycline diet for three weeks after birth. […] Dopamine neuronal number was assessed at 6 weeks of age when the mice were moribund by unbiased stereology counting of TH and Nissl positive neurons.
# A second cohort of Tg-PARIS mice were maintained on […] prior to doxycycline withdrawal. Two groups of non-transgenic control (CamKIIα-tTA or TetP-PARIS) mice were subjected to the same dietary regimen.
# To generate tet-off conditional PARIS transgenic mice, linearized transgenic constructs (NotI digestion, 8 kbp) were microinjected into the embryos and the embryos were transferred into B6D2F1 pseudo-pregnant female mice (Transgenic Animal Core of National Cancer Institute). The three high copy founders (line #121, 158, 179) were mated with C57/BL6 mice for two to three generations to establish the transgenic lines. PARIS induction in conditional transgenic mice was suppressed by feeding the mice with doxycycline-containing food (doxycycline Diet-Sterile, 200 mg per kg doxycycline, Bio-Serv).
# α-syn PFF-injected mice = α-syn PFF-injected mice (WT and C638S KI); assay type: in vivo; conditions: farnesol diet from 2 weeks post-injection; WT versus C638S KI
# Text: Specifically, FIG. 16A illustrates generating Zfp746^C638S/C638S knockin mice (C638S KI) by CRISPR/Cas9. […] WB, western blot analysis. (FIG. 16B). […] (FIG. 16C). […] Stereological TH, Nissl-positive neuronal counting was indicated at the bottom, n=4 mice per group. (FIG. 16 D). […] WT, n=8, 9, 10, and 9 mice for each group; C638S KI, n=8, 10, 9, and 9 mice for each group. (FIG. 16 D). […] WT, n=8, 9, 10, and 9 mice for each group; C638S KI, n=9, 10, 9, and 9 mice for each group. (FIG. 16F). […] Data=mean±SEM. (FIG. 16G).
# Statistical significance was determined by two-way ANOVA test with Tukey post-hoc analysis. Differences were considered significant when p<0.05. *p<0.05, **p<0.01, and ***p<0.001.
# [1] = tested on: PGC-1α and PGC-1α's target genes; experiment: mRNA of PGC-1α and target genes in STR, HIP and SN of farnesol-fed mice; assay type: in vivo
# Procedure: Farnesol is a natural organic compound in both plants and animals. Phosphate derivatives of farnesol are the building blocks of cholesterol in mammalian cells. […] The level of PGC-1α was measured from different brain regions in farnesol-fed mice. PGC-1α levels increase 2.7-fold in the olfactory bulb (OB), 1.6-fold in hippocampus (HIP), and 1.7-fold in substantia nigra (SN) as compared to that of mice on normal mouse chow (FIGS. 2H and 2I). […] In addition, mRNA levels of PGC-1α and a variety of PGC-1α's target genes in the STR, HIP, and SN of farnesol-fed mice were measured.
# PPARα = biological target: T1, PPARα (Homo sapiens, UniProt Q07869); conditions: cited from earlier work
# T1 sequence (Q07869 1-468): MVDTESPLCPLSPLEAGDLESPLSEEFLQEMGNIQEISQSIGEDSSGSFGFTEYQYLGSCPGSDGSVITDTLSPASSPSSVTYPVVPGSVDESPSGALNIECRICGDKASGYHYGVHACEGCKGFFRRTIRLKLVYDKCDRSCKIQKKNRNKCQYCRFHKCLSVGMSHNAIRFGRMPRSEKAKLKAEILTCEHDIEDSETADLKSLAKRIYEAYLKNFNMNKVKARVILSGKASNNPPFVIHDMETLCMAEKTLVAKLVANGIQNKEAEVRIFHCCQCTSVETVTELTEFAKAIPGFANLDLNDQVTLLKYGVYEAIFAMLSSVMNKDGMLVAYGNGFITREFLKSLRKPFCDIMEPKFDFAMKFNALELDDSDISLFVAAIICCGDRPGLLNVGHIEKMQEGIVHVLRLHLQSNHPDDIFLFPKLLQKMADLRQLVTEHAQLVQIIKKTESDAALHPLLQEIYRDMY
# [2] = farnesol fed versus normal chow fed mice
smiles,measurement,setting,value
"CC(C)=CCC/C(C)=C/CC/C(C)=C/CO [farnesol, (2E,6E)-3,7,11-trimethyldodeca-2,6,10-trien-1-ol]",mRNA levels of MCAD,PPARα and PPARγ; SN of farnesol fed mice,increases
same,mRNA levels of PPARγ and ACOX1,PPARα and PPARγ; SN of farnesol fed mice,decreases
same,PGC-1α and NRF-1 levels,PPARα and PPARγ; farnesol fed mice,increase
same,levels of PPARα and PPARγ,PPARα and PPARγ; farnesol fed mice,no alteration
same,dopaminergic neuronal PGC-1α immunoreactivity,"Tg-PARIS mice; Tg-PARIS SN, co-immunostaining",increased dopaminergic neuronal PGC-1α immunoreactivity
same,Pole Test behavior,"Tg-PARIS mice; Tg-PARIS, farnesol diet",complete behavioral rescue
same,"farnesylation of PARIS (FLAG immunoprecipitation, farnesyl antibody)","Tg-PARIS mice; Tg-PARIS, farnesol diet",enhanced farnesylation of PARIS
same,premature lethality due to PARIS overexpression,"Tg-PARIS mice; Tg-PARIS, farnesol diet",delays the premature lethality
same,reduction in PGC-1α and NRF-1 levels,"Tg-PARIS mice; Tg-PARIS, farnesol diet",blocked
same,loss of dopamine neurons in the SN (TH and Nissl stereology),"Tg-PARIS mice; Tg-PARIS, farnesol diet from 3 days prior to doxycycline withdrawal",completely prevents the loss of dopamine neurons
same,mRNA level of PGC-1α and NRF-1 in the SN,Tg-PARIS mice; farnesol-fed versus normal chow-fed mice,significantly upregulated
same,PGC-1α and NRF-1 levels in control mice,"Tg-PARIS mice; non-transgenic control mice, farnesol diet",increases PGC-1α and NRF-1 levels
same,neuroprotective effect in α-syn PFF-injected mice,α-syn PFF-injected mice,requires PARIS farnesylation in vivo
same,"mRNA levels of SOD2, TFAM, UCP2, and CYTC","[1]; farnesol fed mice, SN, HIP, STR","exclusively increased in SN, but not in the HIP and STR"
same,"mRNA level of PGC-1α in HIP, SN and STR",[1]; [2],"significantly upregulated in the HIP and SN, but not in the STR"
same,"mRNA levels of NRF-1, COX II, and COX IV",[1]; [2],upregulated in both HIP and SN
same,activation of PPARα in vitro,PPARα,capable of activating
